Patent US20100016232A1, “Treatment Of Inflammatory Diseases With Mammal Beta Defensins” (Novozymes A/S, priority 2008, published 2010)
Marks after values point to notes of the source that are not given here. Where no end group is shown, it is not given here.

Tests used:
[1] = test system: DSS-induced colitis in the mouse; test: 10-day DSS-induced colitis, colon histological score (Example 6); format: in vivo
Experimental: Two sections (proximal and distal) of colon were taken from each animal and preserved in neutral buffered formalin for subsequent histological analysis (haematoxylin and eosin staining) according to the following scoring system:
Example 6 was carried out essentially as described in Example 5. The differences are indicated below.
Animals were divided into 9 experimental groups.
Two sections (proximal and distal) of colon were taken from each animal, processed for histological analysis (haematoxylin and eosin staining), and scored by a blind observer according to the scoring system described above.

IL-10, dendritic cells = test: IL-10 from dendritic cells (MUTZ-3 derived) stimulated with LPS or LTA; format: cell-based, human; conditions: dendritic cells stimulated with hBD2 and LPS or hBD2 and LTA; results not shown
Experimental: To generate a dendritoid cell line, the human myeloid leukaemia cell lines MUTZ-3 (1×10^5 cells/ml) was differentiated for 7 days in the presence of rhGM-CSF (150 ng/ml) and rhIL-4 (50 ng/ml) into immature DCs. Medium was exchanged every 2-3 days.
(§1) Cytokine production in supernatants was measured by flow cytometry with a human inflammation cytometric bead array (CBA) according to manufacturer's instructions (BD) on a FACSarray flow cytometer. The following cytokines were measured: IL-8, IL-1β, IL-10, TNF, IL-12 p70, IL-6. In some experiments, cytokines were measured by ELISA kits from R&D systems (IL-10, TNF-α, IL-1β) according to the manufacturer' instruction.

IL-23, human PBMC = test: IL-23 in supernatants of human PBMC, ELISA; format: cell-based
Experimental: Peripheral blood was drawn from healthy volunteers (with approval from the relevant ethical committee in Denmark). Heparinized blood was diluted 1/1 v/v with RPMI and were subjected to Ficoll density centrifugation within 2 h of drawing. Plasma was collected from the top from individual donors and was kept on ice until it was used at 2% in the culture medium (autologous culture medium). Isolated PBMC were resuspended in autologous culture medium and seeded in 96-well culture plates with 255.000 cells per well in a total of 200 μl. […] The concentrations used for stimulation were optimized on 3 different donors in initial experiments, for LPS two different concentrations were used to be sure to be on a cytokine level that is possible to modulate. In some experiments PBMC were treated with Dexamethason and Indomethacin alone and together with LPS or LTA as a control on downregulation of inflammatory cytokines. The supernatants were collected after incubation at 37° C. for 24 hours, and stored at −80° C. until cytokine measurement. Viability was measured by Alamar Blue (Biosource, DALL 1100) in all experiments and in some cases also by MTS (Promega) according to manufacturer's instruction and was in some experiments also judged by counting of the cells by a Nucleocounter. […]
Cell culture supernatants were collected and stored at −80° C. Amounts of IL-23 was measured by standard sandwich ELISA using commercially available antibodies and standards according to the manufacturer's protocols (eBioscience).

[2] = test system: TNF production from human peripheral blood mononuclear cells (PBMC); test: TNF production from human PBMC, Cytometric Bead Array; format: cell-based
Experimental: Peripheral blood was drawn from healthy volunteers (with approval from the relevant ethical committee in Denmark). Heparinized blood was diluted 1/1 v/v with RPMI and were subjected to Ficoll density centrifugation within 2 h of drawing. Plasma was collected from the top from individual donors and was kept on ice until it was used at 2% in the culture medium (autologous culture medium). Isolated PBMC were resuspended in autologous culture medium and seeded in 96-well culture plates with 255.000 cells per well in a total of 200 μl. […] The concentrations used for stimulation were optimized on 3 different donors in initial experiments, for LPS two different concentrations were used to be sure to be on a cytokine level that is possible to modulate. In some experiments PBMC were treated with Dexamethason and Indomethacin alone and together with LPS or LTA as a control on downregulation of inflammatory cytokines. The supernatants were collected after incubation at 37° C. for 24 hours, and stored at −80° C. until cytokine measurement. Viability was measured by Alamar Blue (Biosource, DALL 1100) in all experiments and in some cases also by MTS (Promega) according to manufacturer's instruction and was in some experiments also judged by counting of the cells by a Nucleocounter.
as §1

[3] = Group F, 0.1 mg/kg twice daily i.v. + s.c.
[4] = Group G, 0.1 mg/kg i.v. every 2. day
[5] = LPS 0.6 ng/ml, test compound 1 μg/ml, Table 16
[6] = LPS 0.6 ng/ml, test compound 10 μg/ml, Table 16
[7] = LPS 0.6 ng/ml, test compound 40 μg/ml, Table 16
[8] = LPS 20 ng/ml, test compound 1 μg/ml, Table 16
[9] = LPS 20 ng/ml, test compound 10 μg/ml, Table 16
[10] = LPS 20 ng/ml, test compound 40 μg/ml, Table 16

With “hBD2: human beta defensin 2, SEQ ID NO:2; produced recombinantly in E. coli (Example 1); hBD2 of Tables 16-18 was prepared by chemical synthesis (GIGDPVTCLKSGAICHPVFCPRRYKQIGTCGLPGTKCCKKP; ends and bridges not checked; cysteine pairing not given here; listed as Homo sapiens)” the “Histology Score Distal Colon, mean” value ([1]; Group B, 1 mg/kg i.v.) was 3.56, the “Histology Score Proximal Colon, mean” value ([1]; Group B, 1 mg/kg i.v.) was 1.78 and the “Histology Score Distal Colon, mean” value ([1]; Group C, 0.1 mg/kg i.v.) was 3.14*. The “Histology Score Proximal Colon, mean” value ([1]; Group C, 0.1 mg/kg i.v.) was 1.71, the “Histology Score Distal Colon, mean” value ([1]; Group D, 0.01 mg/kg i.v.) was 3.10** and the “Histology Score Proximal Colon, mean” value ([1]; Group D, 0.01 mg/kg i.v.) was 1.70. The “Histology Score Distal Colon, mean” value ([1]; Group E, 0.001 mg/kg i.v.) was 3.56, the “Histology Score Proximal Colon, mean” value ([1]; Group E, 0.001 mg/kg i.v.) was 1.44 and the “Histology Score Distal Colon, mean” value [1, 3] was 2.90***. For the same substance, the “Histology Score Proximal Colon, mean” value [1, 3] was 1.30*, the “Histology Score Distal Colon, mean” value [1, 4] was 3.56 and the “Histology Score Proximal Colon, mean” value [1, 4] was 1.56. The IL-10 (IL-10, dendritic cells) was “induced”, the IL-23 (IL-23, human PBMC; Control (medium), treatment 1 μg/ml) was 218 pg/mL and the IL-23 (IL-23, human PBMC; Control (medium), treatment 10 μg/ml) was 211 pg/mL. It also gave an IL-23 (IL-23, human PBMC; Control (medium), treatment 100 μg/ml) of 207 pg/mL, an IL-23 (IL-23, human PBMC; LPS 0.6 ng/ml, treatment 1 μg/ml) of 338 pg/mL and an IL-23 (IL-23, human PBMC; LPS 0.6 ng/ml, treatment 10 μg/ml) of 462 pg/mL. The IL-23 (IL-23, human PBMC; LPS 0.6 ng/ml, treatment 100 μg/ml) was 484 pg/mL, the IL-23 (IL-23, human PBMC; LPS 20 ng/ml, treatment 1 μg/ml) was 263 pg/mL and the IL-23 (IL-23, human PBMC; LPS 20 ng/ml, treatment 10 μg/ml) was 295 pg/mL. The IL-23 (IL-23, human PBMC; LPS 20 ng/ml, treatment 100 μg/ml) was 488 pg/mL, the IL-23 (IL-23, human PBMC; LTA 5 μg/ml, treatment 1 μg/ml) was 383 pg/mL and the IL-23 (IL-23, human PBMC; LTA 5 μg/ml, treatment 10 μg/ml) was 438 pg/mL. It also gave an IL-23 (IL-23, human PBMC; LTA 5 μg/ml, treatment 100 μg/ml) of 810 pg/mL, a TNF ([2]; LPS 0.6 ng/ml, hBD2 1 μg/ml, Table 1) of 944.8 pg/mL and a TNF ([2]; LPS 0.6 ng/ml, hBD2 1 μg/ml, Table 11) of 170 pg/mL. It also gave a TNF ([2]; LPS 0.6 ng/ml, hBD2 10 μg/ml, Table 1) of 1076.4 pg/mL, a TNF ([2]; LPS 0.6 ng/ml, hBD2 10 μg/ml, Table 11) of 200 pg/mL and a TNF ([2]; LPS 0.6 ng/ml, hBD2 100 μg/ml, Table 1) of 634.2 pg/mL. The TNF ([2]; LPS 0.6 ng/ml, hBD2 100 μg/ml, Table 11) was 0 pg/mL, the TNF ([2]; LPS 0.6 ng/ml, hBD2 1000 μg/ml, Table 11) was 3 pg/mL and the TNF [2, 5] was 242 pg/mL. For the same substance, the “TNF % of control” value [2, 5] was 33%, the TNF [2, 6] was 304 pg/mL and the “TNF % of control” value [2, 6] was 42%. For the same substance, the TNF [2, 7] was 176 pg/mL, the “TNF % of control” value [2, 7] was 24% and the TNF ([2]; LPS 20 ng/ml, hBD2 1 μg/ml, Table 1) was 1526.9 pg/mL. The TNF ([2]; LPS 20 ng/ml, hBD2 1 μg/ml, Table 11) was 6240 pg/mL, the TNF ([2]; LPS 20 ng/ml, hBD2 10 μg/ml, Table 1) was 1306.6 pg/mL and the TNF ([2]; LPS 20 ng/ml, hBD2 10 μg/ml, Table 11) was 350 pg/mL. It also gave a TNF ([2]; LPS 20 ng/ml, hBD2 100 μg/ml, Table 1) of 1733.9 pg/mL, a TNF ([2]; LPS 20 ng/ml, hBD2 100 μg/ml, Table 11) of 38 pg/mL and a TNF ([2]; LPS 20 ng/ml, hBD2 1000 μg/ml, Table 11) of 0 pg/mL. For the same substance, the TNF [2, 8] was 411 pg/mL, the “TNF % of control” value [2, 8] was 19% and the TNF [2, 9] was 132 pg/mL. The “TNF % of control” value [2, 9] was 6%, the TNF [2, 10] was 52 pg/mL and the “TNF % of control” value [2, 10] was 2%. For the same substance, the TNF ([2]; LPS 20 ng/ml, treatment 1 μg/ml, Table 21) was 633 pg/mL, the TNF ([2]; LPS 20 ng/ml, treatment 10 μg/ml, Table 21) was 359 pg/mL and the TNF ([2]; LPS 20 ng/ml, treatment 100 μg/ml, Table 21) was 342 pg/mL. The TNF ([2]; LTA 1.25 μg/ml, hBD2 1 μg/ml, Table 1) was 711.5 pg/mL, the TNF ([2]; LTA 1.25 μg/ml, hBD2 1 μg/ml, Table 11) was 3900 pg/mL and the TNF ([2]; LTA 1.25 μg/ml, hBD2 10 μg/ml, Table 1) was 494.7 pg/mL. For the same substance, the TNF ([2]; LTA 1.25 μg/ml, hBD2 10 μg/ml, Table 11) was 2330 pg/mL, the TNF ([2]; LTA 1.25 μg/ml, hBD2 100 μg/ml, Table 1) was 375.2 pg/mL and the TNF ([2]; LTA 1.25 μg/ml, hBD2 100 μg/ml, Table 11) was 1150 pg/mL. It also gave a TNF ([2]; LTA 1.25 μg/ml, hBD2 1000 μg/ml, Table 11) of 110 pg/mL, a TNF ([2]; Medium, hBD2 1 μg/ml, Table 1) of 4.2 pg/mL and a TNF ([2]; Medium, hBD2 1 μg/ml, Table 9) of 3.4 pg/mL. It also gave a TNF ([2]; Medium, hBD2 1 μg/ml, Table 11) of 0 pg/mL, a TNF ([2]; Medium, hBD2 10 μg/ml, Table 1) of 2.6 pg/mL and a TNF ([2]; Medium, hBD2 10 μg/ml, Table 9) of 3.7 pg/mL. For the same substance, the TNF ([2]; Medium, hBD2 10 μg/ml, Table 11) was 0 pg/mL, the TNF ([2]; Medium, hBD2 100 μg/ml, Table 1) was 2.9 pg/mL and the TNF ([2]; Medium, hBD2 100 μg/ml, Table 9) was 3.6 pg/mL. For the same substance, the TNF ([2]; Medium, hBD2 100 μg/ml, Table 11) was 0 pg/mL, the TNF ([2]; Medium, hBD2 1000 μg/ml, Table 11) was 0 pg/mL and the TNF ([2]; Medium, test compound 1 μg/ml, Table 16) was 0 pg/mL. It also gave a TNF ([2]; Medium, test compound 10 μg/ml, Table 16) of 0 pg/mL, a TNF ([2]; Medium, test compound 40 μg/ml, Table 16) of 0 pg/mL and a TNF ([2]; Medium, treatment 1 μg/ml, Table 21) of 3 pg/mL. The TNF ([2]; Medium, treatment 10 μg/ml, Table 21) was 2 pg/mL, the TNF ([2]; Medium, treatment 100 μg/ml, Table 21) was 2 pg/mL and the TNF ([2]; PBMC stimulated with Pam3CSK4 (TLR2-TLR1 ligand), results not shown) was “able to downregulate TNF”. For the same substance, the TNF ([2]; PGN 40 μg/ml, hBD2 1 μg/ml, Table 9) was 809.9 pg/mL, the TNF ([2]; PGN 40 μg/ml, hBD2 10 μg/ml, Table 9) was 362.0 pg/mL and the TNF ([2]; PGN 40 μg/ml, hBD2 100 μg/ml, Table 9) was 274.9 pg/mL.
